From ChEMBL document CHEMBL5375956, “Discovery of Pyrazolo[1,5-a]pyrimidine Derivative as a Novel and Selective ALKBH5 Inhibitor for the Treatment of AML” (J Med Chem, 2023)
Activity calls are given as the source filed them. The calls are words filed in the database; no cut-off is given here.

How the values were obtained:
[1] = tested on: MOLM-13; experiment: Induction of apoptosis in human MOLM-13 cells assessed as viable cells at 5 uM incubated for 48 hrs by Annexin V-FITC/PI staining based flow cytometry (reference value: 89.8 %); assay type: functional; conditions: read-out: Activity
[2] = target: T1, RNA demethylase ALKBH5 (Homo sapiens, UniProt Q6P6C2); experiment: Inhibition of ALKBH5 (66 to 292 residues)(unknown origin) expressed in Escherichia coli BL21(DE3) using 5'-TAGACATTGCCATTCTCGATAGG (m6A)-TC CGGTCAAACCTAGAC GAATTCCA-3' as substrate incubated for 2 hrs by restriction endonuclease digestion assay; conditions: dose 25-200 µM
Target sequence in this assay (Q6P6C2 2-394 limits assumed): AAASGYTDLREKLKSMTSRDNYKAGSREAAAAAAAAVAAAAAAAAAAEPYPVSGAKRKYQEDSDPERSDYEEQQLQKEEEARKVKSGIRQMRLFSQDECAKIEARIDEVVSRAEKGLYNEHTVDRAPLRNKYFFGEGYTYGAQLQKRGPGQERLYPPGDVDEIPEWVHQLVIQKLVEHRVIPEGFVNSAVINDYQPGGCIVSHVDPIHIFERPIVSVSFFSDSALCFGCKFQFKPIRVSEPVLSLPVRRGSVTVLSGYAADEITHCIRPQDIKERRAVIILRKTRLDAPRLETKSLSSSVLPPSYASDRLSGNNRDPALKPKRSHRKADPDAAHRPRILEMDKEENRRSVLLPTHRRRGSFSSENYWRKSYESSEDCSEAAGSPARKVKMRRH

[3] = target: T1, RNA demethylase ALKBH5; experiment: Binding affinity to ALKBH5 in human MOLM-13 cells assessed as thermal shift heating at 200 uM incubated for 30 mins followed by heating at 45 to 67 degreeC measured for 3 mins by CETSA assay; assay type: cell-based
Target sequence in this assay (Q6P6C2 2-394 limits assumed): as above

[4] = Metabolic stability in human liver microsomes assessed as half life measured upto 240 mins by LC-MS/MS analysis; assay type: ADME, Microsome
[5] = target: T1, RNA demethylase ALKBH5; experiment: Inhibition of ALKBH5 (66 to 292 residues)(unknown origin) expressed in Escherichia coli BL21(DE3) using 5'-ATTGTCA(m6A)CAGCAGA-FAM-3' as substrate incubated for 30 mins in presence of 200 uM of 2-OG by FP based competitive binding assay
Target sequence in this assay (Q6P6C2 whole entry, the tested form may be a part): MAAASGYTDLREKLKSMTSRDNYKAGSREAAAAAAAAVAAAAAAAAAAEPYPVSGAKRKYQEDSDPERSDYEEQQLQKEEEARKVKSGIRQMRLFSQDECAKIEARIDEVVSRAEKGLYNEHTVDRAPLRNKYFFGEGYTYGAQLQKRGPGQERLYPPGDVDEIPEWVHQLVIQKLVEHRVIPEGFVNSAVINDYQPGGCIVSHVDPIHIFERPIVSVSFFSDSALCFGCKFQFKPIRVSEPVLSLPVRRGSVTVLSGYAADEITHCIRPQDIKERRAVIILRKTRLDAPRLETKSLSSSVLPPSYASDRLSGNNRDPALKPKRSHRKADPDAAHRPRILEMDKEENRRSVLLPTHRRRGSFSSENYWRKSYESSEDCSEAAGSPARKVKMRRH

[6] = Metabolic stability in rat plasma assessed as half life measured upto 240 mins by LC-MS/MS analysis; assay type: ADME, cell-free
[7] = target: Alpha-ketoglutarate-dependent dioxygenase FTO (Homo sapiens, UniProt Q9C0B1); experiment: Inhibition of FTO (32 to 505 residues)(unknown origin) expressed in Escherichia coli BL21(DE3) using 5'-TAGACATTGCCATTCTCGATAGG(m6A)-TCCGGTCAAACCTAGACGAATTCCA-3' as substrate at 100 uM incubated for 2 hrs by restriction endonuclease digestion assay
[8] = tested on: MOLM-13; experiment: Induction of cell cycle arrest at […] phase in human MOLM-13 cells at 20 uM incubated for 48 hrs by […]PI staining based flow cytometry; assay type: functional
[9] = tested on: MV4-11; experiment: Induction of apoptosis in human MV4-11 cells assessed as early apoptosis cells at 5 uM incubated for 48 hrs by Annexin V-FITC/PI staining based flow cytometry (reference value: 1.24 %); assay type: functional
[10] = target: RNA demethylase ALKBH5 (Homo sapiens, UniProt Q6P6C2, R130A); experiment: Binding affinity to NT-647-NHS fluorescent dye-labeled ALKBH5 R130A mutant (unknown origin) expressed in Escherichia coli BL21(DE3) using m6A-ssDNA as substrate assessed as dissociation constant incubated for 15 mins by MST assay
[11] = target: T1, RNA demethylase ALKBH5; experiment: Inhibition of ALKBH5 (66 to 292 residues)(unknown origin) expressed in Escherichia coli BL21(DE3) using 5'-ATTGTCA(m6A)CAGCAGA-FAM-3' as substrate incubated for 30 mins in presence of 2 uM of 2-OG by FP based competitive binding assay
Target sequence in this assay (Q6P6C2 whole entry, the tested form may be a part): as the sequence (Q6P6C2 whole entry, the tested form may be a part) above

[12] = tested on: MOLM-13; experiment: Induction of apoptosis in human MOLM-13 cells assessed as late apoptosis cells at 10 uM incubated for 48 hrs by Annexin V-FITC/PI staining based flow cytometry (reference value: 6.49 %); assay type: functional
[13] = tested on: MOLM-13; experiment: Downregulation of TACC3 mRNA level in human MOLM-13 cells at 5 to 10 uM incubated for 48 hrs by qRT-PCR analysis; assay type: functional, cell-based; conditions: dose 5-10 µM
[14] = Tmax in Sprague-Dawley rat at 10 mg/kg, po measured for 1 to 1440 mins by LC-MS/MS analysis; assay type: ADME, organism-based; conditions: in vivo, time 1-1440 min
[15] = tested on: MV4-11; experiment: Antitumor activity against human MV4-11 cells xenografted in nude mouse assessed as tumor growth inhibition at 20 mg/kg, ip treated every day for 14 days relative to control; assay type: functional; conditions: MV4-11, 336 h, time 14 day, read-out: TGI
[16] = MRT in Sprague-Dawley rat at 2 mg/kg, iv measured for 1 to 1440 mins by LC-MS/MS analysis; assay type: ADME, organism-based; conditions: in vivo, time 1-1440 min
[17] = MRT in Sprague-Dawley rat at 10 mg/kg, po measured for 1 to 1440 mins by LC-MS/MS analysis; assay type: ADME, organism-based; conditions: in vivo, time 1-1440 min
[18] = target: T1, RNA demethylase ALKBH5; experiment: Inhibition of ALKBH5 in human MOLM-13 cells assessed as increase in m6A RNA level by dot blot assay; assay type: cell-based; conditions: dose <= 20.0 µM
Target sequence in this assay (Q6P6C2 2-394 limits assumed): as the sequence (Q6P6C2 2-394 limits assumed) above

[19] = tested on: MV4-11; experiment: Induction of cell cycle arrest at […] phase in human MV4-11 cells at 20 uM incubated for 48 hrs by […]PI staining based flow cytometry; assay type: functional
[20] = tested on: MOLM-13; experiment: Antiproliferative activity against human MOLM-13 cells assessed as inhibition of cell proliferation incubated for 72 hrs by Cell Titer Luminescence assay; assay type: functional, cell-based; conditions: MOLM-13, 72 h
[21] = target: RNA demethylase ALKBH5 (Homo sapiens, UniProt Q6P6C2, R277A/Y139A); experiment: Binding affinity to NT-647-NHS fluorescent dye-labeled ALKBH5 Y139A/R277A mutant (unknown origin) expressed in Escherichia coli BL21(DE3) using m6A-ssDNA as substrate assessed as dissociation constant incubated for 15 mins by MST assay
[22] = tested on: MV4-11; experiment: Antitumor activity against human MV4-11 cells xenografted in nude mouse assessed as tumor growth inhibition at 40 mg/kg, ip treated every day for 14 days relative to control; assay type: functional; conditions: MV4-11, 336 h, time 14 day, read-out: TGI
[23] = target: T2, Alpha-ketoglutarate-dependent dioxygenase alkB homolog 3 (Homo sapiens) (UniProt Q96Q83); experiment: Inhibition of ALKBH3 (62 to 286 residues)(unknown origin) expressed in Escherichia coli BL21(DE3) using 5'-TAGACATTGCCATTCTCGATAGG(m6A)-TCCGGTCAAACCTAGACGAATTCCA-3' as substrate at 100 uM incubated for 2 hrs by restriction endonuclease digestion assay
T2 sequence (whole entry): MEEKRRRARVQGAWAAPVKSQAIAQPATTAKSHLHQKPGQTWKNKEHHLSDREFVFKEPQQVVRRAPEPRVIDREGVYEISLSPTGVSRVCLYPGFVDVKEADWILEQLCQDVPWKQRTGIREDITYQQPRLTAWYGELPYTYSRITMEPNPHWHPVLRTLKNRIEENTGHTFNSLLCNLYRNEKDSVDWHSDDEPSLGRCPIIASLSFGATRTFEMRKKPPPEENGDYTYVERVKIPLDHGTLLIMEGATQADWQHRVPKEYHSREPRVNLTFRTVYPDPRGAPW

[24] = target: T1, RNA demethylase ALKBH5; experiment: Inhibition of ALKBH5 (66 to 292 residues)(unknown origin) expressed in Escherichia coli BL21(DE3) using 5'-ATTGTCA(m6A)CAGCAGA-FAM-3' as substrate incubated for 30 mins in presence of 20 uM of 2-OG by FP based competitive binding assay
Target sequence in this assay (Q6P6C2 whole entry, the tested form may be a part): as the sequence (Q6P6C2 whole entry, the tested form may be a part) above

[25] = target: T1, RNA demethylase ALKBH5; experiment: Inhibition of ALKBH5 in HEK293 cells assessed as increase in m6A RNA level at 10 to 40 uM by colorimetric assay; assay type: cell-based; conditions: dose 10-40 µM
Target sequence in this assay (Q6P6C2 2-394 limits assumed): as the sequence (Q6P6C2 2-394 limits assumed) above

[26] = tested on: MV4-11; experiment: Downregulation of TACC3 mRNA level in human MV4-11 cells at 5 to 10 uM incubated for 48 hrs by qRT-PCR analysis; assay type: functional, cell-based; conditions: dose 5-10 µM

Sequence of Alpha-ketoglutarate-dependent dioxygenase FTO (Q9C0B1 whole entry, looked up, the tested form may be a part): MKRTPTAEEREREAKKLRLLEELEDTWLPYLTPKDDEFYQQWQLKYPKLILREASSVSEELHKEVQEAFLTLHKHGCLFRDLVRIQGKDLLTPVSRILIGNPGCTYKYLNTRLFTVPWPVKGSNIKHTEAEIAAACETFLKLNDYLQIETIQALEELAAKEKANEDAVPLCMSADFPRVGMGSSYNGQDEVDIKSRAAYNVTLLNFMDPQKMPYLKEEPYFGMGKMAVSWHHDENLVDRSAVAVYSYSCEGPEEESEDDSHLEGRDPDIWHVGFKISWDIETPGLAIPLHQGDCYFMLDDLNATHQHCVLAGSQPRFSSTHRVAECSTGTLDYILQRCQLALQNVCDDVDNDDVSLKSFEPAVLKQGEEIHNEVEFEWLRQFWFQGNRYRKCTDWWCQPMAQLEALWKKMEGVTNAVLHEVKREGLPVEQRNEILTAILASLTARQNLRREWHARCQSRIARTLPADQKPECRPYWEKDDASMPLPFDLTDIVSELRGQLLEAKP
Sequence of RNA demethylase ALKBH5 (Homo sapiens, UniProt Q6P6C2, R277A/Y139A) (Q6P6C2 2-394 Y139A/R277A limits assumed): as the sequence (Q6P6C2 2-394 limits assumed) above, with Y138A, R276A counted along it
Sequence of RNA demethylase ALKBH5 (Homo sapiens, UniProt Q6P6C2, R130A) (Q6P6C2 2-394 R130A limits assumed): as the sequence (Q6P6C2 2-394 limits assumed) above, with R129A counted along it

O=C(OCc1ccc(C(F)(F)F)cc1)c1ccc(-c2cc3ncc(C(=O)c4c(O)ccc([N+](=O)[O-])c4O)cn3n2)cc1
viability at 5 µM [1]: 77.2% | inhibition [2]: Dose-Dependent Effect | Activity [3]: Active | half-life [4]: 430 min | IC50 [5]: 4.46 µM | half-life [6]: 251 min | inhibition [7]: inactive | Activity [8]: Active | Activity [9]: 1.44% | Kd [10]: 373 µM | IC50 [11]: 4.64 µM | Activity [12]: 31.5% | Activity [13]: Active | Tmax [14]: 30 min | inhibition in vivo at 20 mg/kg [15]: 68.9% | MRT [16]: 1.3 h | MRT [17]: 2.8 h | inhibition [18]: Dose-Dependent Effect | Activity [19]: Active | IC50 [20]: 450 nM | Kd [21]: 15.8 µM | inhibition in vivo at 40 mg/kg [22]: 70.5% | inhibition [23]: inactive | IC50 [24]: 4.32 µM | inhibition [25]: Active | Activity [26]: Active
